Experimental data published in US20130217655A1, “COMPOSITIONS FOR TREATING PSORIASIS OF THE SCALP” (Dermipsor Ltd., priority 2010, published 2013).

Assay: skin penetration of calcipotriol from the formulation
Settings: calcipotriol in the present formulation, topical

## C=C1/C(=C\C=C2/CCC[C@]3(C)[C@@H]([C@H](C)/C=C/[C@@H](O)C4CC4)CC[C@@H]23)C[C@@H](O)C[C@@H]1O [Calcipotriol]
  penetration of the skin: does not penetrate the skin
